Active and inactive are the calls of the source. No cut-off for these calls is given here.
How the values were obtained:
Assay type in all cases: cell-based
Gamma-secretase [1] = experiment: Effect on gamma-secretase activity in human H4 cells expressing APP695 assessed as increase in Amyloid beta38 formation by LPECL assay
Gamma-secretase [2] = experiment: (§1) Effect on gamma-secretase activity in human H4 cells expressing APP695 assessed as reduction of Amyloid beta-40 formation LPECL assay
Gamma-secretase [3] = experiment: Effect on gamma-secretase activity in human H4 cells expressing APP695 assessed as reduction of Amyloid beta-42 formation LPECL assay
H4 = experiment: Cytotoxicity against human H4 cells assessed as reduction of viability
Gamma-secretase [4] = experiment: Effect on gamma-secretase activity in human H4 cells expressing APP695 assessed as reduction of Amyloid beta-38 formation by LPECL assay
Gamma-secretase [5] = experiment: Effect on gamma-secretase activity in human H4 cells expressing APP695 assessed as increase in Amyloid beta-42 formation LPECL assay
[6] = target: Gamma-secretase (Homo sapiens) (UniProt Q96BI3+Q9NZ42+Q8WW43+P49768+Q92542+P49810); experiment: as §1

SMILES	EC50 (Gamma-secretase [1]) [µM]	IC50 (Gamma-secretase [2]) [µM]	IC50 (Gamma-secretase [3]) [µM]	IC50 (Gamma-secretase [4]) [µM]	EC50 (Gamma-secretase [5]) [µM]	Activity [6]	Activity (H4) [µM]
Cc1ccc(S(=O)(=O)n2c3ccc(Cl)cc3c3ccc(C(C)C(=O)OCc4ccccc4)cc32)cc1 (stereo not given)				20	20	inactive	> 40
CC(C)c1cc(C(C)C)c(S(=O)(=O)n2c3ccccc3c3ccc(OCC(=O)O)cc32)c(C(C)C)c1	7.8						20
O=S(=O)(c1ccccc1)N(CC(F)(F)F)c1ccc(C(O)(C(F)(F)F)C(F)(F)F)cc1 [T091317]		> 40		4.5	3.6		
CCCCCCCCCCn1c2ccc(Cl)cc2c2ccc(C(C)C(=O)O)cc21 (stereo not given)	5.8						40
CC(C)c1cc(C(C)C)c(S(=O)(=O)n2c3ccc(Cl)cc3c3ccc(C(C)C(=O)O)cc32)c(C(C)C)c1 (stereo not given)	9.3						40
CCCCCCCCCCn1c2ccccc2c2ccc(OCC(=O)O)cc21							> 40

Further lines, with some results ahead:

EC50 (Gamma-secretase [1]) [µM]	IC50 (Gamma-secretase [2]) [µM]	IC50 (Gamma-secretase [3]) [µM]	IC50 (Gamma-secretase [4]) [µM]	EC50 (Gamma-secretase [5]) [µM]	Activity [6]	SMILES	Activity (H4) [µM]
23.7	> 40	19.6				CCCCCCCCN(c1ccc(OCC(=O)O)cc1)S(=O)(=O)c1cc(C(F)(F)F)cc(C(F)(F)F)c1	40
	> 40		> 40	10.6		CC(C)(C)OC(=O)COc1ccc(NS(=O)(=O)c2cc(C(F)(F)F)cc(C(F)(F)F)c2)cc1	> 40
	> 40		13.3	6.2		CCCCCCCCN(c1ccc(OCC(=O)OC(C)(C)C)cc1)S(=O)(=O)c1cc(C(F)(F)F)cc(C(F)(F)F)c1	> 40
	> 40		> 20	> 20		CC(C(=O)OCc1ccccc1)c1ccc2c3cc(Cl)ccc3n(S(=O)(=O)c3cc(C(F)(F)F)cc(C(F)(F)F)c3)c2c1 (stereo not given)	> 40

Reference: ChEMBL document CHEMBL1139797, “Conversion of the LXR-agonist TO-901317--from inverse to normal modulation of gamma-secretase by addition of a carboxylic acid and a lipophilic anchor” (Bioorg Med Chem Lett, 2007)
